{"source": "patent US20260248879A1", "about": "“METHODS OF USING A GCG/GLP1 CO-AGONIST FOR THERAPY” (ELI LILLY AND COMPANY, priority 2022, published 2026)", "key": {"[1]": {"system": "patients with T2DM", "test": "Example 1 study: fasting pharmacodynamic markers (glucose, insulin, C-peptide, glucagon, lipids, HOMA indices)", "assay_type": "in vivo, human", "conditions": "for mean fasting glucagon: baseline 9.83; for mean fasting triglyceride: baseline 1.867; for mean fasting LDL cholesterol: baseline 2.796; for mean fasting total cholesterol: baseline 4.971; for mean fasting insulin: baseline 5.892; for mean fasting C-peptide: baseline 532.8", "experimental": "Fasting plasma samples for glucose and insulin are explored as secondary PD markers. Exploratory PD may include, but are not limited to plasma glucagon, C-peptide, native OXM, lipid panel (triglycerides, total cholesterol, low-density lipoprotein cholesterol, and high-density lipoprotein cholesterol), beta cell function, and homeostatic model assessment (HOMA) indices.\nPlasma concentrations of at least glucose, glucagon, insulin, C-peptide and native OXM, are assayed using validated analytical methods.\nIn respect of Cohort 1, PD sampling occurs at baseline and Days 1, 3 (48 hours post administration of Compound 1), 8, 22, 29, 50, 57, 78 and 80. […]"}, "[2]": {"system": "patients with T2DM", "test": "Example 1 study: gastric emptying (acetaminophen PK)", "assay_type": "in vivo, human"}, "[3]": {"conditions": "Cohort 2, escalated to 8.0 mg, Day 85"}, "[4]": {"conditions": "Cohort 2, escalated to 10.0 mg, Day 106"}, "[5]": {"conditions": "Cohort 2, escalated to 10.0 mg, Day 106 and Day 108"}, "[6]": {"conditions": "Cohort 2, escalated to 10.0 mg, Day 108"}}}
{"smiles": "CC(C)C[C@H](NC(=O)[C@H](CC(C)C)NC(=O)[C@H](Cc1c[nH]c2ccccc12)NC(=O)[C@H](CCC(=O)O)NC(=O)[C@@H](NC(=O)[C@H](Cc1ccccc1)NC(=O)[C@H](CCC(=O)O)NC(=O)[C@H](CCCCNC(=O)COCCOCCNC(=O)COCCOCCNC(=O)CC[C@H](NC(=O)CCCCCCCCCCCCCCCCCCC(=O)O)C(=O)O)NC(=O)[C@H](C)NC(=O)[C@H](CCCCN)NC(=O)[C@H](CCCCN)NC(=O)[C@H](CCC(=O)O)NC(=O)[C@H](CC(=O)O)NC(=O)[C@H](CC(C)C)NC(=O)[C@H](Cc1ccc(O)cc1)NC(=O)[C@H](CCCCN)NC(=O)[C@H](CO)NC(=O)[C@H](Cc1ccc(O)cc1)NC(=O)[C@H](CC(=O)O)NC(=O)[C@H](CO)NC(=O)[C@@H](NC(=O)[C@H](Cc1ccccc1)NC(=O)[C@@H](NC(=O)CNC(=O)[C@H](CCC(N)=O)NC(=O)C(C)(C)NC(=O)[C@@H](N)Cc1c[nH]cn1)[C@@H](C)O)[C@@H](C)O)C(C)C)C(=O)N[C@@H](CCC(=O)O)C(=O)NCC(=O)NCC(=O)N1CCC[C@H]1C(=O)N[C@@H](CO)C(=O)N[C@@H](CO)C(=O)NCC(N)=O", "note": "[Compound 1]", "values": [{"measurement": "approximate increase of fasting C-peptide from baseline", "setting": "[1]; Cohort 2, escalated to 8.0 mg", "result": "approximately 2%"}, {"measurement": "approximate increase of fasting insulin from baseline", "setting": "[1]; Cohort 2, escalated to 8.0 mg", "result": "~12", "unit": "%"}, {"measurement": "mean fasting glucagon", "setting": "[1]; Cohort 2, escalated to 8.0 mg, Day 80 (so in the source)", "result": 2, "unit": "pmol/L"}, {"measurement": "approximate decrease of HOMA-IR from baseline", "setting": "[1]; [3]", "result": "approximately 27%"}, {"measurement": "approximate decrease of fasting LDL cholesterol from baseline", "setting": "[1]; [3]", "result": "approximately 30%"}, {"measurement": "approximate decrease of fasting total cholesterol from baseline", "setting": "[1]; [3]", "result": "approximately 27%"}, {"measurement": "approximate decrease of fasting triglyceride from baseline", "setting": "[1]; [3]", "result": "approximately 54%"}, {"measurement": "approximate increase of HOMA-B from baseline", "setting": "[1]; [3]", "result": "approximately 83%"}, {"measurement": "mean fasting triglyceride", "setting": "[1]; [3]", "result": 0.855, "unit": "mmol/L"}, {"measurement": "mean HOMA-IR index", "setting": "[1]; Cohort 2, escalated to 8.0 mg, Day 85, baseline 2.7", "result": 1.976}, {"measurement": "mean fasting LDL cholesterol", "setting": "[1]; [3]", "result": 1.954, "unit": "mmol/L"}, {"measurement": "mean fasting total cholesterol", "setting": "[1]; [3]", "result": 3.614, "unit": "mmol/L"}, {"measurement": "mean HOMA-B index", "setting": "[1]; Cohort 2, escalated to 8.0 mg, Day 85, baseline 9.108", "result": 16.689}, {"measurement": "mean fasting insulin", "setting": "[1]; Cohort 2, escalated to 8.0 mg", "result": 6.589, "unit": "mIU/L"}, {"measurement": "mean fasting C-peptide", "setting": "[1]; Cohort 2, escalated to 8.0 mg", "result": 542, "unit": "pmol/L"}, {"measurement": "approximate decrease of fasting C-peptide from baseline", "setting": "[1]; Cohort 2, escalated to 10.0 mg", "result": "~18", "unit": "%"}, {"measurement": "approximate decrease of fasting insulin from baseline", "setting": "[1]; Cohort 2, escalated to 10.0 mg", "result": "~20", "unit": "%"}, {"measurement": "approximate decrease of fasting total cholesterol from baseline", "setting": "[1]; Cohort 2, escalated to 10.0 mg", "result": "~31", "unit": "%"}, {"measurement": "mean fasting triglyceride", "setting": "[1]; [4]", "result": 0.86, "unit": "mmol/L"}, {"measurement": "mean fasting LDL cholesterol", "setting": "[1]; [4]", "result": 1.859, "unit": "mmol/L"}, {"measurement": "mean fasting total cholesterol", "setting": "[1]; [4]", "result": 3.454, "unit": "mmol/L"}, {"measurement": "mean fasting insulin", "setting": "[1]; [4]", "result": 5.355, "unit": "mIU/L"}, {"measurement": "mean fasting glucagon", "setting": "[1]; [4]", "result": 1.98, "unit": "pmol/L"}, {"measurement": "mean fasting C-peptide", "setting": "[1]; [4]", "result": 511, "unit": "pmol/L"}, {"measurement": "approximate decrease of fasting LDL cholesterol from baseline", "setting": "[1]; [5]", "result": "33-34%"}, {"measurement": "approximate decrease of fasting triglyceride from baseline", "setting": "[1]; [5]", "result": "47-54%"}, {"measurement": "approximate decrease of HOMA-IR from baseline", "setting": "[1]; [6]", "result": "~51", "unit": "%"}, {"measurement": "approximate increase of HOMA-B from baseline", "setting": "[1]; [6]", "result": "~33", "unit": "%"}, {"measurement": "approximate reduction of mean fasting glucose from baseline", "setting": "[1]; [6]", "result": "~43", "unit": "%"}, {"measurement": "mean fasting triglyceride", "setting": "[1]; [6]", "result": 0.985, "unit": "mmol/L"}, {"measurement": "mean fasting LDL cholesterol", "setting": "[1]; [6]", "result": 1.849, "unit": "mmol/L"}, {"measurement": "mean fasting total cholesterol", "setting": "[1]; [6]", "result": 3.441, "unit": "mmol/L"}, {"measurement": "mean fasting insulin", "setting": "[1]; [6]", "result": 4.74, "unit": "mIU/L"}, {"measurement": "mean fasting glucagon", "setting": "[1]; [6]", "result": 1.93, "unit": "pmol/L"}, {"measurement": "mean fasting glucose", "setting": "[1]; Cohort 2, escalated to 10.0 mg, Day 108, baseline 10.46", "result": 5.91, "unit": "mmol/L"}, {"measurement": "mean fasting C-peptide", "setting": "[1]; [6]", "result": 435, "unit": "pmol/L"}, {"measurement": "mean fasting HDL levels", "setting": "[1]; Cohort 2, over the dosing period (FIG. 7c)", "result": "decreased from baseline"}, {"measurement": "reduction of fasting LDL cholesterol", "setting": "[1]; dose 8.0 mg or higher", "result": "≥ 30", "unit": "%"}, {"measurement": "reduction of fasting insulin resistance indices", "setting": "[1]; dose 10 mg or greater", "result": 50, "unit": "%"}, {"measurement": "reduction of fasting insulin resistance indices", "setting": "[1]; dose greater than 6.0 mg", "result": "greater than 25%"}, {"measurement": "reduction of fasting plasma glucagon", "setting": "[1]; dose greater than 6.0 mg", "result": "approximately 80%"}, {"measurement": "reduction of fasting triglyceride", "setting": "[1]; dose greater than 6.0 mg", "result": "≥ 50", "unit": "%"}, {"measurement": "reduction of fasting total cholesterol", "setting": "[1]; dose greater than 8.0 mg", "result": "more than 30%"}, {"measurement": "acetaminophen Cmax, Change From Baseline, Mean", "setting": "[2]; Cohort 1, Day 107", "result": 1487.25}, {"measurement": "acetaminophen tmax", "setting": "[2]; Cohort 1, Day 107", "result": 1.456, "unit": "h"}, {"measurement": "acetaminophen tmax", "setting": "[2]; Cohort 2, Day 79", "result": 3.302, "unit": "h"}, {"measurement": "acetaminophen tmax, Change From Baseline, Mean", "setting": "[2]; Cohort 2, Day 79", "result": 0.333, "unit": "h"}]}
